According to patent US20200157135A1, “SIDE-CHAIN MODIFIED ERGOSTEROL AND STIGMASTEROL DERIVATIVES AS LIVER X RECEPTOR MODULATORS” (Ospedale San Raffaele srl, priority 2017, published 2020):
Like-named read-outs stand apart in the source and are kept apart here.

Key:
hLXRα = biological target: T1, hLXRα (Homo sapiens, UniProt Q13133); test: luciferase assay with GAL-4 chimeric hLXRα receptor in human embryonic kidney 293 cells; type: cell-based; details: for Emax: HEK293, 24 h, read-out: LXRα Efficacy (%) ± SD; for LXR isoform selectivity profile: LXRα versus LXRβ, GAL4 luciferase assays
T1 sequence (Q13133 209-447 limits assumed): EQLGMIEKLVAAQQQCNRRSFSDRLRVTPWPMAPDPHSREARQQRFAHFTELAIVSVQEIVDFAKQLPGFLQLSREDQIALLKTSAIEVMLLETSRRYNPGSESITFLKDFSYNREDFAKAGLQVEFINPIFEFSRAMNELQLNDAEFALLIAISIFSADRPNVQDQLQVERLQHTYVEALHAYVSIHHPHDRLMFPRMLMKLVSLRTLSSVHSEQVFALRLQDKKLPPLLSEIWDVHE
Method: (§1) All the synthesized compounds were first tested for their ability to activate LXRs by using luciferase assays with GAL-4 chimeric receptors. These were performed by co-transfecting plasmids encoding hLXRα- and β-binding domains fused to GAL-4, with the respective responsive element conjugated with the luciferase reporter gene into the human embryonic kidney 293 cells.
(§2) Cell Culture and Co-transfection Assays. Human embryonic Kidney 293 cells (American Type Culture Collection) were cultured in Dulbecco's Modified Eagle's medium containing 10% of fetal bovine serum at 37° C. in humidified atmosphere of 5% CO2. HEK293 cells (4×10^4 cells per well) were transiently transfected in 48 well plate with the reporter plasmids pMH100X4-TK-luc (100 ng/well), Renilla (22 ng/well) together with 100 ng/well of pCMX-Gal4-RXR, pCMX-Gal4-PPAR-γ, pCMX-Gal4-PXR, pFA-CMV-FXR pCMX-Gal4-LXR-α or pCMX-Gal4-LXR-β plasmids using X-tremeGENE 9 DNA Transfection Reagent (Roche). Six hours after transfection, the cells were treated with the appropriate compound for 24 hours. Luciferase activities were analyzed by luciferase Dual Reporter Assay Systems (Promega) according to the manufacturer's protocol. GAL4-LXRs, GAL4-PPAR-γ, GAL4-RXR and TK-MHC100-luc plasmids were described in Villablanca et al.49 GAL4-PXR was a kind gift of Dr. Enrique Sainz (The Scripps Research Institute, La Jolla, USA). GAL4-FXR was a kind gift of Dr. Daniel Merk (Goethe-University Frankfurt am Main). The results obtained by luciferase assays and reported in Table 1 are from three to five independent experiments.
(§3) Statistical analysis. Data are expressed as mean±SEM and were analyzed for significance by ANOVA with Dunnet's multiple comparison tests. The analysis was performed with Prism software. Data in Table 1 are expressed as EC50±SD. In particular, the standard deviations were obtained by calculating the mean of the EC50 of each experiment (three to five independent experiments). The efficacy (%) of the compounds was calculated as the percentage of the compound effect, in terms of LXRα or β activation, versus 8 μM of 22R—HC±SD. The analyses were performed with Prism software.

MCP-1/CCL2 = test: qPCR of CCL2 expression in differentiated U937 cells treated with LPS; type: cell-based, human; details: differentiated U937, 6 hours, 10 μM in combination with LPS (100 ng/ml)
Method: (§4) U937 cells differentiated with PMA for 72 hours were treated with LPS (100 ng/ml) in combination with T0901317 (10 μM) or with the title compounds (10 μM). […] (n=3/group). *p<0.05, **p<0.01, ***p<0.001.
(§5) Quantitative Real-Time-PCR. U937 cell line was differentiated in foam macrophages with phorbol 12-myristate 13-acetate (PMA) 10 ng/ml (Sigma) for 72 hours at 37° C. in […] at the concentration of 3×10^6 cells in 10 ml RPMI 10% FBS. At day 3 nuclear receptor ligands were added for 6 hours. HepG2 cells were treated with the ligands as described by Quinet et al.22 Total RNA was purified by TRIZOL (Invitrogen, Carlsbad, Calif., USA). Reverse transcription was performed incubating 2 μg of total RNA 1 hour at 42° C. with MLV-reverse transcriptase (Promega). Quantitative PCR was performed using Sybr Green Master Mix (Applied Biosystems) and real-time PCR (Viia 7 Real Time PCR System, Applied Biosystems). All PCR reactions were done in triplicate. The comparative Ct method was used to quantify transcripts that were normalized for human GAPDH. the following primer pairs were used: […]

hPXR = test: luciferase assay GAL4-hPXR in human embryonic kidney 293 cells; type: cell-based; details: compounds at 10 μM
Method: Human embryonic kidney 293 cells were co-transfected with GAL4-hRXR (A), GAL4-hPPARγ (B), GAL4-hPXR (C) and GAL4-hFXR (D) expression plasmids together with GAL4 responsive element pMHC100X4-TK-luc and Renilla plasmids. Cells were incubated with vehicle (DMSO), PFMs at the concentration of 10 μM, and the nuclear receptor specific ligands 9cis retinoic acid (100 nM) (A), Rosiglitazone (RSG 100 nM) (B), T0901317 (100 nM) (C) and GW4064 (100 nM) (D) for six hours. The values represent mean±S.D. RLA, relative luciferase activity.
The selectivity of our compounds within the nuclear receptor superfamily was also evaluated by luciferase assays using GAL4-RXR, -PPARγ, -PXR and -FXR plasmids.
as §2

TNFα = test: qPCR of TNFα expression in differentiated U937 cells treated with LPS; type: cell-based, human; details: differentiated U937, 6 hours, 10 μM in combination with LPS (100 ng/ml)
Method: as §4, §5

hLXRβ = biological target: T2, hLXRβ (Homo sapiens, UniProt P55055); test: luciferase assay with GAL-4 chimeric hLXRβ receptor in human embryonic kidney 293 cells; type: cell-based
T2 sequence (P55055 222-460 limits assumed): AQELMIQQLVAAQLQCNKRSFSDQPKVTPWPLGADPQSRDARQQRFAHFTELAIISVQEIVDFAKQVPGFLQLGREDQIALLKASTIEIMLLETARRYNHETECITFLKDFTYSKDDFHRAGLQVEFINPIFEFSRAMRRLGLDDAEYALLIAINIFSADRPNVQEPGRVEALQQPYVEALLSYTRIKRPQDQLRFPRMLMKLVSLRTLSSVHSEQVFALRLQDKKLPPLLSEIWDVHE
Method: as §1, §2, §3

[1] = GAL4-hLXRα luciferase, HEK293, dose-response 32-1 μM, mean of three-five independent experiments, read-out: LXRα EC50 (μM) ± SD
[2] = % of compound effect versus 8 μM of 22R-HC

Structure (SMILES)	EC50 (hLXRα; [1])	Emax (hLXRα; [2])	LXR isoform selectivity profile (hLXRα)	inhibition of CCL2 expression (MCP-1/CCL2)	PXR activation (hPXR)	also measured
CC(C)[C@@H](C)[C@@H](O)C[C@@H](C)[C@H]1CC[C@H]2C3=CC=C4C[C@@H](O)CC[C@]4(C)[C@H]3CC[C@]12C [Compound 21, (23S)-3β-Ergost-5,7-diene-3,23-diol]	8.07 ± 1.6 µM	159 ± 41.3%	selective LXRα agonists	same grade of potency of the positive control T0901317	slight activation of PXR	inhibition of TNFα expression (TNFα): the most active
CC(C)[C@@H](C)C[C@H](O)[C@@H](C)[C@H]1CC[C@H]2C3=CC=C4C[C@@H](O)CC[C@]4(C)[C@H]3CC[C@]12C [Compound 22, (22S)-3β-Ergost-5,7-diene-3,22-diol]	6.61 ± 1.69 µM			same grade of potency of the positive control T0901317	slight activation of PXR	EC50 (hLXRβ; GAL4-hLXRβ luciferase, HEK293, dose-response 32-1 μM, mean of three-five independent experiments, read-out: LXRβ EC50 (μM) ± SD): 1.96 ± 0.1 µM
CC(C)[C@@H](C)[C@H](O)C[C@@H](C)[C@H]1CC[C@H]2C3=CC=C4C[C@@H](O)CC[C@]4(C)[C@H]3CC[C@]12C [Compound 23, (23R)-3β-Ergost-5,7-diene-3,23-diol]	15.8 ± 0.65 µM	63.9 ± 26.9%				
CC(C)[C@@H](C)C(=O)C[C@@H](C)[C@H]1CC[C@H]2C3=CC=C4C[C@@H](O)CC[C@]4(C)[C@H]3CC[C@]12C [Compound 27, 3β-Hydroxyergost-5,7-diene-23-one]	5.58 ± 0.3 µM	151 ± 4.8%	selective LXRα agonists			
CC(C)[C@@H](C)CC(=O)[C@@H](C)[C@H]1CC[C@H]2C3=CC=C4C[C@@H](O)CC[C@]4(C)[C@H]3CC[C@]12C [Compound 28, 3β-Hydroxyergost-5,7-diene-22-one]	8.51 ± 0.42 µM	70.2 ± 3.9%	selective LXRα agonists			
CC[C@](O)(CC[C@@H](C)[C@H]1CCC2C3CC=C4C[C@@H](O)CC[C@]4(C)C3CC[C@@]21C)C(C)C (some centres unmarked) [Compound 29]						EC50 (hLXRα): 3.72 ± 0.5 µM; Emax (hLXRα): 11 ± 4.08%; EC50 (hLXRβ): 3.21 ± 0.6 µM; Emax (hLXRβ; HEK293, 24 h, read-out: LXRβ Efficacy (%) ± SD, % of compound effect versus 8 μM of 22R-HC): 48.4 ± 5%; beta/alfa efficacy ratio (hLXRβ; LXRβ efficacy over LXRα efficacy): 4.4
